Patent US10111880B2, “Compounds for the treatment of diabetes and disease complications arising from same” (BEN-GURION UNIVERSITY OF THE NEGEV RESEARCH AND DEVELOPMENT …, priority 2013, dated 2018)

System: STZ-induced diabetic ICR mice
Experiment: Blood glucose in STZ-induced diabetic ICR mice, long-term AGS treatment (5 months) with or without insulin
Type: in vivo, mouse
Design: Blood Glucose At 101 day / Blood Glucose At 111 day: unit: mg/dL
Details: for % reduction in blood glucose level / Blood glucose level Average: after 12 hours fast, day 142; for Blood glucose level Average: in mg/dL (unit assumed)
Protocol: [0182]7 week-old female ICR mice were intra-peritoneally injected with STZ (40 mg\Kg) for 5 consecutive days. Non-diabetic mice received citrate buffer (pH 4.3, cold), which served as the vehicle controls for this study. AGS-500 (6 mg\Kg) was then administered subcutaneously every 2 days, for 5 months, on the first day after STZ administration. A further control group, where DMSO was administered in accordance with this regimen, was included. Mice were divided into the following 6 groups (10 mice per group except STZ only-5 mice): • STZ only • STZ+DMSO • Citrate+DMSO 1% every day • STZ+AGS-499 (6 mg/kg) injected every day S.C • STZ+AGS-500 (6 mg/kg) injected every day S.C • STZ+AGS-500 (6 mg/kg) injected every other day S.C Mice were weighed and blood glucose levels were measured using a free style glucometer. Food consumption was also measured 24 hours prior to STZ injection. The concentration of STZ to be injected was calculated. STZ at 40 mg/kg was injected ip for 5 consecutive days. AGS treatment was administered one day following the last STZ injection. The establishment of diabetes was validated by the assessment of blood glucose levels performed every 3 days (at the beginning) and once a week after 59 days from the initiation of the experiment. Blood glucose levels over 200 mg/dl (measured 3 consecutive times) indicated a diabetic state. At 80 days from the initiation of the experiments each group was divided to 2 subgroups which received either insulin (4 units/kg) or acetic acid (0.015%) both in HEPES buffer (pH 7.45) injected every 48 hours. Mice were sacrificed after 5 months from the initiation of the experiments. Blood glucose levels were monitored every 3 days. Ten weeks after the beginning of this study, each group was divided into 2 sub-groups, one of each also received insulin (4 U\Kg) every 2 days, except for the non-diabetic sub-groups. Acetic acid (1%) served as the vehicle control.

CC(c1cc(Br)c(O)c(Br)c1)(c1cc(Br)c(O)c(Br)c1)c1cc(Br)c(O)c(Br)c1 [AGS-500, 1,1,1-tris (4-hydroxy-3,5-dibromo-phenyl)-ethane]
blood glucose levels with time (AGS 500 every 48 hrs, without insulin): best effect in reducing blood glucose levels with time
circulating glucose levels, AGS-500 alone versus combined AGS-500 and insulin (FIG. 2F): greatest therapeutic effect
% reduction in blood glucose level (6 mg/kg s.c. daily): 20%
Blood glucose level Average (6 mg/kg s.c. daily): 317.4
% reduction in blood glucose level (6 mg/kg s.c. every 48 hrs): 32%
Blood glucose level Average (6 mg/kg s.c. every 48 hrs): 270
% reduction In blood Glucose 101 day (no insulin, daily): 15%
Blood Glucose At 101 day (no insulin, daily): 600
Blood Glucose At 111 day (no insulin, daily): 450
reduction In blood Glucose 111 day (no insulin, daily): 25%
% reduction In blood Glucose 101 day (no insulin, every 48 hrs): 43%
Blood Glucose At 101 day (no insulin, every 48 hrs): 400
Blood Glucose At 111 day (no insulin, every 48 hrs): 390
reduction In blood Glucose 111 day (no insulin, every 48 hrs): 35%
Blood Glucose At 101 day (with insulin (4 units/kg every 48 hours), AGS daily): 460
% reduction In blood Glucose 101 day (with insulin, AGS daily): 34%
Blood Glucose At 111 day (with insulin, AGS daily): 400
reduction In blood Glucose 111 day (with insulin, AGS daily): 34%
% reduction In blood Glucose 101 day (with insulin, AGS every 48 hrs): 32%
Blood Glucose At 101 day (with insulin, AGS every 48 hrs): 480
Blood Glucose At 111 day (with insulin, AGS every 48 hrs): 400
reduction In blood Glucose 111 day (with insulin, AGS every 48 hrs): 34%
